What was measured:
Test in all cases: cells
SW872 = type: functional, cell-based, Homo sapiens; settings: Homo sapiens, SW872;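 also: growth inhibition of SW872 cells, read out by a viability assay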
Description: SANGER: Inhibition of human SW872 cell growth in a cell viability assay.

LS-123 = type: functional, cell-based, Homo sapiens; settings: Homo sapiens, LS-123
Description: SANGER: Inhibition of human LS-123 cell growth in a cell viability assay.

OMC-1 = type: functional, cell-based, Homo sapiens; settings: Homo sapiens, OMC-1;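 also: growth inhibition of the OMC-1 cell line, measured by a cell viability assay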
Description: SANGER: Inhibition of human OMC-1 cell growth in a cell viability assay.

A388 = type: functional, cell-based, Homo sapiens; settings: Homo sapiens, A388;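 also: growth inhibition of human A388 cells, read out with a cell viability assay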
Description: SANGER: Inhibition of human A388 cell growth in a cell viability assay.

OCI-AML2 = type: functional, cell-based, Homo sapiens; settings: Homo sapiens, OCI-AML2;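 also: growth inhibition of OCI-AML2 cells, read out with a cell viability assay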
Description: SANGER: Inhibition of human OCI-AML2 cell growth in a cell viability assay.

MFM-223 = type: functional, cell-based, Homo sapiens; settings: Homo sapiens, MFM-223
Description: SANGER: Inhibition of human MFM-223 cell growth in a cell viability assay.

GI-1 = type: functional, cell-based, Homo sapiens; settings: Homo sapiens, GI-1;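 also: growth inhibition of human GI-1 cells, measured with a cell viability readout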
Description: SANGER: Inhibition of human GI-1 cell growth in a cell viability assay.

MZ7-mel = type: functional, cell-based, Homo sapiens; settings: Homo sapiens, MZ7-mel;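 also: growth inhibition of human MZ7-mel cells, measured by a cell viability assay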
Description: SANGER: Inhibition of human MZ7-mel cell growth in a cell viability assay.

GOTO = type: functional, cell-based, Homo sapiens; settings: Homo sapiens, GOTO;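 also: growth inhibition of GOTO cells, read out by a cell viability assay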
Description: SANGER: Inhibition of human GOTO cell growth in a cell viability assay.

MEG-01 = type: functional, cell-based, Homo sapiens; settings: Homo sapiens, MEG-01;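 also: growth inhibition of MEG-01 cells, read out by a cell viability assay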
Description: SANGER: Inhibition of human MEG-01 cell growth in a cell viability assay.

EW-1 = type: functional, cell-based, Homo sapiens; settings: Homo sapiens, EW-1;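 also: growth inhibition of the human EW-1 cell line, read out by a cell viability assay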
Description: SANGER: Inhibition of human EW-1 cell growth in a cell viability assay.

CTB-1 = type: functional, cell-based, Homo sapiens; settings: Homo sapiens, CTB-1
Description: SANGER: Inhibition of human CTB-1 cell growth in a cell viability assay.

KNS-42 = type: functional, cell-based, Homo sapiens; settings: Homo sapiens, KNS-42;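 also: growth inhibition of KNS-42 cells, read out with a cell viability assay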
Description: SANGER: Inhibition of human KNS-42 cell growth in a cell viability assay.

SK-MEL-2 = type: functional, cell-based, Homo sapiens; settings: Homo sapiens, SK-MEL-2;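 also: growth inhibition of human SK-MEL-2 cells measured with a cell viability assay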
Description: SANGER: Inhibition of human SK-MEL-2 cell growth in a cell viability assay.

DB = type: functional, cell-based, Homo sapiens; settings: Homo sapiens, DB
Description: SANGER: Inhibition of human DB cell growth in a cell viability assay.

DEL = type: functional, cell-based, Homo sapiens; settings: Homo sapiens, DEL;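 also: growth inhibition of the human DEL cell line, read out with a cell viability assay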
Description: SANGER: Inhibition of human DEL cell growth in a cell viability assay.

no-10 = type: functional, cell-based, Homo sapiens; settings: Homo sapiens;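 also: growth inhibition of no-10 cells, read out with a cell viability assay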
Description: SANGER: Inhibition of human no-10 cell growth in a cell viability assay.

NCI-H226 = type: functional, cell-based, Homo sapiens; settings: Homo sapiens, NCI-H226;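 also: cell viability read-out used to gauge growth inhibition of the cells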
Description: SANGER: Inhibition of human NCI-H226 cell growth in a cell viability assay.

MFH-ino = type: functional, cell-based, Homo sapiens; settings: Homo sapiens, MFH-ino;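 also: growth inhibition of human MFH-ino cells, read out by a cell viability assay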
Description: SANGER: Inhibition of human MFH-ino cell growth in a cell viability assay.

IST-MES1 = type: functional, cell-based, Homo sapiens; settings: Homo sapiens, IST-MES1;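 also: growth inhibition of IST-MES1 cells, measured with a cell viability assay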
Description: SANGER: Inhibition of human IST-MES1 cell growth in a cell viability assay.

KINGS-1 = type: functional, cell-based, Homo sapiens; settings: Homo sapiens, KINGS-1;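 also: cell viability assay measuring suppression of KINGS-1 cell growth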
Description: SANGER: Inhibition of human KINGS-1 cell growth in a cell viability assay.

SK-N-DZ = type: functional, cell-based, Homo sapiens; settings: Homo sapiens, SK-N-DZ;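 also: growth inhibition of the cancer cell line, read out through a viability assay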
Description: SANGER: Inhibition of human SK-N-DZ cell growth in a cell viability assay.

GAK = type: functional, cell-based, Homo sapiens; settings: Homo sapiens, GAK;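 also: cell growth inhibition read out by a cell viability assay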
Description: SANGER: Inhibition of human GAK cell growth in a cell viability assay.

ACN = type: functional, cell-based, Homo sapiens; settings: Homo sapiens, ACN;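 also: growth inhibition of the human ACN cell line, read out via cell viability testing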
Description: SANGER: Inhibition of human ACN cell growth in a cell viability assay.

ES5 = type: functional, cell-based, Homo sapiens; settings: Homo sapiens, ES5;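 also: growth inhibition of human ES5 cells, read out by a cell viability assay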
Description: SANGER: Inhibition of human ES5 cell growth in a cell viability assay.

JVM-3 = type: functional, cell-based, Homo sapiens; settings: Homo sapiens, JVM-3;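 also: growth inhibition of human JVM-3 cells, read out with a cell viability assay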
Description: SANGER: Inhibition of human JVM-3 cell growth in a cell viability assay.

NCI-H1648 = type: functional, cell-based, Homo sapiens; settings: Homo sapiens, NCI-H1648;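 also: cell viability assay measuring inhibition of NCI-H1648 cell growth, from the Sanger screening data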
Description: SANGER: Inhibition of human NCI-H1648 cell growth in a cell viability assay.

UACC-257 = type: functional, cell-based, Homo sapiens; settings: Homo sapiens, UACC-257
Description: SANGER: Inhibition of human UACC-257 cell growth in a cell viability assay.

L-363 = type: functional, cell-based, Homo sapiens; settings: Homo sapiens, L-363
Description: SANGER: Inhibition of human L-363 cell growth in a cell viability assay.

LC-2-ad = type: functional, cell-based, Homo sapiens; settings: Homo sapiens, LC-2-ad;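 also: growth inhibition of human LC-2-ad cells, read out with a cell viability assay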
Description: SANGER: Inhibition of human LC-2-ad cell growth in a cell viability assay.

NCI-H720 = type: functional, cell-based, Homo sapiens; settings: Homo sapiens, NCI-H720;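 also: growth inhibition of human NCI-H720 cells determined by a cell viability assay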
Description: SANGER: Inhibition of human NCI-H720 cell growth in a cell viability assay.

EKVX = type: functional, cell-based, Homo sapiens; settings: Homo sapiens, EKVX;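 also: growth inhibition of human EKVX cells, read out with a cell viability assay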
Description: SANGER: Inhibition of human EKVX cell growth in a cell viability assay.

LU-139 = type: functional, cell-based, Homo sapiens; settings: Homo sapiens, LU-139
Description: SANGER: Inhibition of human LU-139 cell growth in a cell viability assay.

HDLM-2 = type: functional, cell-based, Homo sapiens; settings: Homo sapiens, HDLM-2;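 also: cell viability assay measuring suppression of HDLM-2 proliferation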
Description: SANGER: Inhibition of human HDLM-2 cell growth in a cell viability assay.

SHP77 = type: functional, cell-based, Homo sapiens, SHP-77; settings: Homo sapiens, SHP77;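 also: growth inhibition of human SHP-77 cells measured by a cell viability assay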
Description: SANGER: Inhibition of human SHP-77 cell growth in a cell viability assay.

COLO-320-HSR = type: functional, cell-based, Homo sapiens; settings: Homo sapiens, COLO-320-HSR;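 also: growth inhibition of COLO-320-HSR cells, determined with a cell viability assay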
Description: SANGER: Inhibition of human COLO-320-HSR cell growth in a cell viability assay.

D-247MG = type: functional, cell-based, Homo sapiens; settings: Homo sapiens, D-247MG
Description: SANGER: Inhibition of human D-247MG cell growth in a cell viability assay.

NEC8 = type: functional, cell-based, Homo sapiens; settings: Homo sapiens, NEC8;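 also: growth inhibition of human NEC8 cells, read out by a cell viability assay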
Description: SANGER: Inhibition of human NEC8 cell growth in a cell viability assay.

MOLT-16 = type: functional, cell-based, Homo sapiens; settings: Homo sapiens, MOLT-16;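 also: growth inhibition of human MOLT-16 cells, read out with a cell viability assay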
Description: SANGER: Inhibition of human MOLT-16 cell growth in a cell viability assay.

NCI-H446 = type: functional, cell-based, Homo sapiens; settings: Homo sapiens, NCI-H446;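 also: growth inhibition of NCI-H446 cells determined by a cell viability assay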
Description: SANGER: Inhibition of human NCI-H446 cell growth in a cell viability assay.

OS-RC-2 = type: functional, cell-based, Homo sapiens; settings: Homo sapiens, OS-RC-2;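 also: growth inhibition of human OS-RC-2 cells, measured by a cell viability assay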
Description: SANGER: Inhibition of human OS-RC-2 cell growth in a cell viability assay.

NTERA-2-cl-D1 = type: functional, cell-based, Homo sapiens; settings: Homo sapiens, NTERA-2-cl-D1;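 also: inhibition of cell growth, measured with a cell viability assay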
Description: SANGER: Inhibition of human NTERA-S-cl-D1 cell growth in a cell viability assay.

TE-12 = type: functional, cell-based, Homo sapiens; settings: Homo sapiens, TE-12;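 also: growth inhibition of TE-12 cells, read out by a cell viability assay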
Description: SANGER: Inhibition of human TE-12 cell growth in a cell viability assay.

HuTu80 = type: functional, cell-based, Homo sapiens, HUTU-80; settings: Homo sapiens, HuTu80;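 also: growth inhibition of HuTu80 human cells, determined with a cell viability readout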
Description: SANGER: Inhibition of human HUTU-80 cell growth in a cell viability assay.

NCI-H510A = type: functional, cell-based, Homo sapiens; settings: Homo sapiens, NCI-H510A;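 also: growth inhibition of NCI-H510A cells, read out with a cell viability assay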
Description: SANGER: Inhibition of human NCI-H510A cell growth in a cell viability assay.

MZ2-MEL = type: functional, cell-based, Homo sapiens; settings: Homo sapiens, MZ2-MEL;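 also: growth inhibition of MZ2-MEL cells read out with a cell viability assay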
Description: SANGER: Inhibition of human MZ2-MEL cell growth in a cell viability assay.

JAR = type: functional, cell-based, Homo sapiens; settings: Homo sapiens, JAR;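 also: growth inhibition of human JAR cells determined with a cell viability assay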
Description: SANGER: Inhibition of human JAR cell growth in a cell viability assay.

HCC 2998 = type: functional, cell-based, Homo sapiens; settings: Homo sapiens, HCC 2998;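 also: growth inhibition of human HCC2998 cells, measured with a cell viability read-out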
Description: SANGER: Inhibition of human HCC2998 cell growth in a cell viability assay.

N[C@@H](CSC(c1ccccc1)(c1ccccc1)c1ccccc1)C(=O)O [S-TRITYL-L-CYSTEINE] was tested, and the IC50 (SW872) was 795 nM, the IC50 (LS-123) was > 5120 nM and the IC50 (OMC-1) was > 5120 nM. For the same molecule, the IC50 (A388) was 620 nM, the IC50 (OCI-AML2) was 4220 nM and the IC50 (MFM-223) was > 5120 nM. The IC50 (GI-1) was > 5120 nM, the IC50 (MZ7-mel) was 3180 nM and the IC50 (GOTO) was > 5120 nM. For the same molecule, the IC50 (MEG-01) was 1800 nM, the IC50 (EW-1) was 1510 nM and the IC50 (CTB-1) was 3200 nM. The IC50 (KNS-42) was 2580 nM, the IC50 (SK-MEL-2) was > 5120 nM and the IC50 (DB) was > 5120 nM. For the same molecule, the IC50 (DEL) was 1410 nM, the IC50 (no-10) was 1960 nM and the IC50 (NCI-H226) was > 5120 nM. The IC50 (MFH-ino) was 471 nM, the IC50 (IST-MES1) was > 5120 nM and the IC50 (KINGS-1) was 2160 nM. For the same molecule, the IC50 (SK-N-DZ) was 3140 nM, the IC50 (GAK) was > 5120 nM and the IC50 (ACN) was 1460 nM. The IC50 (ES5) was > 5120 nM, the IC50 (JVM-3) was > 5120 nM and the IC50 (NCI-H1648) was 602 nM. For the same molecule, the IC50 (UACC-257) was > 5120 nM, the IC50 (L-363) was 1730 nM and the IC50 (LC-2-ad) was 537 nM. The IC50 (NCI-H720) was > 5120 nM, the IC50 (EKVX) was > 5120 nM and the IC50 (LU-139) was 2910 nM. For the same molecule, the IC50 (HDLM-2) was 1500 nM, the IC50 (SHP77) was > 5120 nM and the IC50 (COLO-320-HSR) was 894 nM. For the same molecule, the IC50 (D-247MG) was > 5120 nM, the IC50 (NEC8) was 2690 nM and the IC50 (MOLT-16) was 1890 nM. For the same molecule, the IC50 (NCI-H446) was 2590 nM, the IC50 (OS-RC-2) was > 5120 nM and the IC50 (NTERA-2-cl-D1) was > 5120 nM. The IC50 (TE-12) was > 5120 nM, the IC50 (HuTu80) was 546 nM and the IC50 (NCI-H510A) was 1380 nM. For the same molecule, the IC50 (MZ2-MEL) was > 5120 nM and the IC50 (JAR) was 941 nM.
Cc1ccc(-c2c(C(=O)CCl)n(CCCO)c3ncnc(N)c23)cc1 was tested, and the IC50 (SW872) was > 4000 nM, the IC50 (LS-123) was > 4000 nM and the IC50 (OMC-1) was > 4000 nM. The IC50 (A388) was 2190 nM, the IC50 (OCI-AML2) was > 4000 nM and the IC50 (MFM-223) was > 4000 nM. The IC50 (GI-1) was 2700 nM, the IC50 (MZ7-mel) was > 4000 nM and the IC50 (GOTO) was > 4000 nM. The IC50 (MEG-01) was > 4000 nM, the IC50 (EW-1) was > 4000 nM and the IC50 (CTB-1) was 1620 nM. The IC50 (KNS-42) was > 4000 nM, the IC50 (SK-MEL-2) was > 4000 nM and the IC50 (DB) was > 4000 nM. The IC50 (DEL) was > 4000 nM, the IC50 (no-10) was > 4000 nM and the IC50 (NCI-H226) was > 4000 nM. The IC50 (MFH-ino) was > 4000 nM, the IC50 (IST-MES1) was > 4000 nM and the IC50 (KINGS-1) was > 4000 nM. For the same molecule, the IC50 (SK-N-DZ) was > 4000 nM, the IC50 (GAK) was > 4000 nM and the IC50 (ACN) was > 4000 nM. For the same molecule, the IC50 (ES5) was > 4000 nM, the IC50 (JVM-3) was > 4000 nM and the IC50 (NCI-H1648) was > 4000 nM. The IC50 (UACC-257) was > 4000 nM, the IC50 (L-363) was > 4000 nM and the IC50 (LC-2-ad) was 2740 nM. For the same molecule, the IC50 (NCI-H720) was > 4000 nM, the IC50 (EKVX) was > 4000 nM and the IC50 (LU-139) was > 4000 nM. The IC50 (HDLM-2) was > 4000 nM, the IC50 (SHP77) was > 4000 nM and the IC50 (COLO-320-HSR) was > 4000 nM. For the same molecule, the IC50 (D-247MG) was > 4000 nM, the IC50 (NEC8) was > 4000 nM and the IC50 (MOLT-16) was > 4000 nM. The IC50 (NCI-H446) was > 4000 nM, the IC50 (OS-RC-2) was > 4000 nM and the IC50 (NTERA-2-cl-D1) was > 4000 nM. For the same molecule, the IC50 (TE-12) was > 4000 nM, the IC50 (HuTu80) was > 4000 nM and the IC50 (NCI-H510A) was > 4000 nM. The IC50 (MZ2-MEL) was > 4000 nM and the IC50 (JAR) was > 4000 nM.
With C#Cc1cccc(Nc2ncnc3cc(OCCOC)c(OCCOC)cc23)c1 [ERLOTINIB] the IC50 (SW872) was > 2000 nM, the IC50 (LS-123) was > 2000 nM and the IC50 (OMC-1) was > 2000 nM. The IC50 (A388) was 1090 nM, the IC50 (OCI-AML2) was > 2000 nM and the IC50 (MFM-223) was > 2000 nM. The IC50 (GI-1) was > 2000 nM, the IC50 (MZ7-mel) was > 2000 nM and the IC50 (GOTO) was > 2000 nM. The IC50 (MEG-01) was > 2000 nM, the IC50 (EW-1) was > 2000 nM and the IC50 (CTB-1) was > 2000 nM. The IC50 (KNS-42) was > 2000 nM, the IC50 (SK-MEL-2) was > 2000 nM and the IC50 (DEL) was > 2000 nM. The IC50 (no-10) was > 2000 nM, the IC50 (NCI-H226) was > 2000 nM and the IC50 (MFH-ino) was > 2000 nM. The IC50 (IST-MES1) was > 2000 nM, the IC50 (KINGS-1) was > 2000 nM and the IC50 (SK-N-DZ) was > 2000 nM. For the same molecule, the IC50 (ACN) was > 2000 nM, the IC50 (ES5) was > 2000 nM and the IC50 (JVM-3) was > 2000 nM. For the same molecule, the IC50 (NCI-H1648) was 40 nM, the IC50 (UACC-257) was > 2000 nM and the IC50 (L-363) was > 2000 nM. For the same molecule, the IC50 (LC-2-ad) was > 2000 nM, the IC50 (NCI-H720) was > 2000 nM and the IC50 (HCC 2998) was > 2000 nM. For the same molecule, the IC50 (EKVX) was 1120 nM, the IC50 (LU-139) was > 2000 nM and the IC50 (HDLM-2) was > 2000 nM. For the same molecule, the IC50 (SHP77) was > 2000 nM, the IC50 (COLO-320-HSR) was > 2000 nM and the IC50 (D-247MG) was > 2000 nM. The IC50 (NEC8) was > 2000 nM, the IC50 (MOLT-16) was 1930 nM and the IC50 (NCI-H446) was > 2000 nM. The IC50 (OS-RC-2) was > 2000 nM, the IC50 (NTERA-2-cl-D1) was > 2000 nM and the IC50 (TE-12) was 54.4 nM. The IC50 (HuTu80) was > 2000 nM, the IC50 (NCI-H510A) was > 2000 nM and the IC50 (MZ2-MEL) was > 2000 nM.

— ChEMBL document CHEMBL1201861, “Genomics of Drug Sensitity in Cancer screening data, Wellcome Trust Sanger Institute”
